Article PMC10384175, “In Vitro and In Silico Evaluation of Antiproliferative Activity of New Isoxazolidine Derivatives Targeting EGFR: Design, Synthesis, Cell Cycle Analysis, and Apoptotic Inducers” (Pharmaceuticals, 2023)

What was measured:
A549 [1] = assay: MTT antiproliferative assay, A549; type: cell-based, human
Method: Cell viability was measured according to the previously published work [42].

MCF-7 [2] = assay: Cellular apoptosis assay (flow cytometry), MCF-7; type: cell-based, human; conditions: MCF-7, at IC50, 48 h
MCF-7 [3] = assay: Flow cytometric cell cycle analysis (PI), MCF-7; type: cell-based, human; conditions: for cell cycle arrest phase: MCF-7; for (%) of cells in G0/G1 / (%) of cells in S: MCF-7, 48 h at IC50
Method: (§1) Based on the antiproliferative activity data shown above, a flow cytometry analysis was performed to identify the cell cycle arrest induced by the selected compounds (2f and 2g) in the three cell lines, for 48 h at their respective IC50 concentrations (Figure 4). The cell cycle (G1, S, and G2) was analyzed after staining the DNA with propidium iodide (PI). […] Towards SKOV3 cell lines, the population of cells in the G0/G1 phase was not affected for 2f (31.4 ± 1.2 vs. 30.8 ± 1.5) and increased for 2g (31.4 ± 1.2 vs. 44.5 ± 0.6). Moreover, in the S phase, it was increased for 2f (43.1 ± 0.6vs. 59.5 ± 0.2) and not affected for 2g (43.1 ± 0.6 vs. 44.8 ± 1.6), however, it decreased in the G2/M phase for both 2f and 2g by a factor of 2.83 and 2.44, respectively.
(§2) The effect of selected compounds on cell cycle phase distribution was determined by flow cytometry using the same protocol described elsewhere.

EGFR tyrosine kinase = EGFR tyrosine kinase (Homo sapiens, UniProt P00533); assay: EGFR tyrosine kinase inhibition; type: biochemical; conditions: enzymatic inhibition
Method: The EGFR activity was determined based on the method reported by E.A.A. El-Meguid et al. [43].

SKOV3 [4] = assay: Cellular apoptosis assay (flow cytometry), SKOV3; type: cell-based, human; conditions: SKOV3, at IC50, 48 h
A549 [5] = assay: Cellular apoptosis assay (flow cytometry), A549; type: cell-based, human; conditions: A549, at IC50, 48 h
SKOV3 [6] = assay: Flow cytometric cell cycle analysis (PI), SKOV3; type: cell-based, human; conditions: for cell cycle arrest phase: SKOV3; for (%) of cells in G0/G1 / (%) of cells in S / decrease in the G2/M phase vs control, factor: SKOV3, 48 h at IC50
Method: as §1, §2

MCF-7 [7] = assay: MTT antiproliferative assay, MCF-7; type: cell-based, human
Method: (§3) Compounds 2a–g were tested for their growth inhibitory effectiveness against MCF-7, A-549, and SKOV3 cell lines by means of MTT assay, with doxorubicin used as an anticancer standard drug. […] Remarkably, we note the high antiproliferative activity of 2c and 2d, only towards SKOV3.
(§4) The Roswell Park Memorial Institute medium (RPMI 1640, Gibco, Grand Island, NY, USA) was used to culture the following cancer cell lines including MCF-7, A549, and SKOV3. Cells were grown in FBS (10%) and 100 units mL PS (penicillin/streptomycin) and were supplied to the same medium under standard cell conditions in an incubator (5% of CO2, at 37 °C).
(§5) Cell viability was measured according to the previously published work.

A549 [8] = assay: Flow cytometric cell cycle analysis (PI), A549; type: cell-based, human; conditions: for cell cycle arrest phase: A549
Method: The effect of selected compounds on cell cycle phase distribution was determined by flow cytometry using the same protocol described elsewhere [44].

SKOV-3 = assay: MTT antiproliferative assay, SKOV3; type: cell-based, human
Method: as §3, §4, §5

[9] = Homo sapiens, SK-OV-3, MTT assay

Chain of EGFR tyrosine kinase (P00533 25-1210): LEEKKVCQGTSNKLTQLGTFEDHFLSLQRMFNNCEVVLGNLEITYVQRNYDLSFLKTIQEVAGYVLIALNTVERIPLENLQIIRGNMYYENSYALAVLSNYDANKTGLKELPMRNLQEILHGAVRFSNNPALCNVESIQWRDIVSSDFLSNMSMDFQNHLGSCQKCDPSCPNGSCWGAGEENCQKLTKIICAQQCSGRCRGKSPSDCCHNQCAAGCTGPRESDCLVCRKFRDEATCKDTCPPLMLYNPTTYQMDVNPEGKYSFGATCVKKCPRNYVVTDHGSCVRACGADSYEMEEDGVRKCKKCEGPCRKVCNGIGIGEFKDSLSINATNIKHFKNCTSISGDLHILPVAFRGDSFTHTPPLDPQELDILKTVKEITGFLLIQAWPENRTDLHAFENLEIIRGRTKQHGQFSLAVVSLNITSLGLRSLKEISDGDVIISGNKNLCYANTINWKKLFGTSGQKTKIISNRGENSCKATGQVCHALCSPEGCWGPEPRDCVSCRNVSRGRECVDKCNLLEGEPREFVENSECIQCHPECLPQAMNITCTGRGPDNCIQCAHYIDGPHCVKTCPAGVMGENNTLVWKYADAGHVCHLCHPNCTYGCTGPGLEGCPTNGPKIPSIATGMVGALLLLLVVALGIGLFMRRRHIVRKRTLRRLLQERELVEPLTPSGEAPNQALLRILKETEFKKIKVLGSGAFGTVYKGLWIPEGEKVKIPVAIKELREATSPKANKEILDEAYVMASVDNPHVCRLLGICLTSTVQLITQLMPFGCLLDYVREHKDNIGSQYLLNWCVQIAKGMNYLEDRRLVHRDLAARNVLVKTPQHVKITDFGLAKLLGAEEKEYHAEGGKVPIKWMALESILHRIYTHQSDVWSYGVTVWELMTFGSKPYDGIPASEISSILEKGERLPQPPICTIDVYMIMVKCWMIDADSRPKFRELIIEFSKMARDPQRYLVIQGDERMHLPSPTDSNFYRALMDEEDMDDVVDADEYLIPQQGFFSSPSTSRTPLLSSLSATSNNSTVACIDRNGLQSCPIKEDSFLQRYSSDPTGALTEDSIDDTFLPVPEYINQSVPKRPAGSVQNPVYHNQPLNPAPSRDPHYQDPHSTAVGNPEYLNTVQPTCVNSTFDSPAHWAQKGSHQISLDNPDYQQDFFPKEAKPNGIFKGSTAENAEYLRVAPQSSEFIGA

Compound	IC50 (A549 [1]; Homo sapiens, A549, MTT assay)	IC50 (A549 [1]; MTT assay)	Early apoptosis (MCF-7 [2])	Intact cells (MCF-7 [2])	Late apoptosis (MCF-7 [2])	Necrosis (MCF-7 [2])	Total death (cellular apoptosis) (MCF-7 [2])	(%) of cells in G0/G1 (MCF-7 [3])	(%) of cells in S (MCF-7 [3])	Early apoptosis (SKOV3 [4])	Intact cells (SKOV3 [4])	Late apoptosis (SKOV3 [4])	Necrosis (SKOV3 [4])	Total death (cellular apoptosis) (SKOV3 [4])	Early apoptosis (A549 [5])	Intact cells (A549 [5])	Late apoptosis (A549 [5])	Necrosis (A549 [5])	IC50 (MCF-7 [7]; Homo sapiens, MCF7, MTT assay)	IC50 (SKOV-3; [9])	further results
COC(=O)c1cc(C)cc(C[C@@H]2C[C@H]3C(=O)N(C)[C@@]4(C[C@H](C)CC[C@H]4C(C)C)N3O2)c1O [2g, Methyl 2-hydroxy-3-(((1S,2S,2′R,3a′S,5R)-2-isopropyl-5,5′-dimethyl-4′-oxotetrahydro-2′H-spiro[cyclohexane-1,6′-imidazo[1,5-b]isoxazol]-2′-yl)methyl)-5-methylbenzoate]	12.1 ± 1.1 µM	9.7 ± 0.7 µM	46.49%	24.83%	20.51%	8.17%	75.17%	53.7 ± 0.6%	36.3 ± 0.6%	12.92%	3.34%	81.05%	2.68%	96.65%	60.72%	21.24%	17.69%	0.35%	17.7 ± 1 µM	–	cell cycle arrest phase (MCF-7 [3]): G0/G1 phase; IC50 (EGFR tyrosine kinase): 0.484 ± 0.01 µM; Total death (cellular apoptosis) (A549 [5]): 78.76%; cell cycle arrest phase (SKOV3 [6]): G0/G1 phase; (%) of cells in G0/G1 (SKOV3 [6]): 44.5 ± 0.6%; (%) of cells in S (SKOV3 [6]): 44.8 ± 1.6%; decrease in the G2/M phase vs control, factor (SKOV3 [6]): 2.44; IC50 (MCF-7 [7]; MTT assay): 9.7 ± 1.3 µM; cell cycle arrest phase (A549 [8]): G0/G1 phase; (%) of cells in G0/G1 (A549 [8]; A549, 48 h at IC50): 49.3 ± 0.7%; (%) of cells in S (A549 [8]; A549, 48 h at IC50): 40.2 ± 0.3%; decrease of population in the G2/M phase vs control (A549 [8]; A549, 48 h at IC50): 2.37 folds; decrease of population in the S phase vs control (A549 [8]; A549, 48 h at IC50): 1.08 folds
COc1cc(C[C@@H]2C[C@H]3C(=O)N(C)C4(C[C@H](C)CC[C@H]4C(C)C)N3O2)ccc1O (stereo partly drawn) [2a, (2S,2′R,3a′S,5R)-2′-(4-hydroxy-3-methoxybenzyl)-2-isopropyl-5,5′-dimethyldihydro-2′H-spiro[cyclohexane-1,6′-imidazo [1,5-b]isoxazol]-4′(5′H)-one]	18.1 ± 0.7 µM	–	–	–	–	–	–	–	–	–	–	–	–	–	–	–	–	–	21.3 ± 0.5 µM	14.5 ± 0.9 µM	–
COc1ccc(C[C@@H]2C[C@H]3C(=O)N(C)C4(C[C@H](C)CC[C@H]4C(C)C)N3O2)cc1OC (stereo partly drawn) [2d, (2S,2′R,3a′S,5R)-2′-(3,4-dimethoxybenzyl)-2-isopropyl-5,5′-dimethyldihydro-2′H-spiro[cyclohexane-1,6′-imidazo [1,5-b]isoxazol]-4′(5′H)-one]	25 ± 2.5 µM	–	–	–	–	–	–	–	–	–	–	–	–	–	–	–	–	–	8.7 ± 0.5 µM	27.6 ± 2.2 µM	–
(2R,2′R,3a′S,5R)-2′-(2-acetyl-6-hydroxybenzyl)-2,5,5′-trimethyldihydro-2′H-spiro[cyclohexane-1,6′-imidazo [1,5-b]isoxazol]-4′(5′H)-one [2b]	–	48.7 ± 0.9 µM	–	–	–	–	–	–	–	–	–	–	–	–	–	–	–	–	–	–	IC50 (MCF-7 [7]; MTT assay): 22.2 ± 0.3 µM; IC50 (SKOV-3; MTT assay): 18.3 ± 0.9 µM
CC(C)[C@@H]1CC[C@@H](C)C[C@@]12N(C)C(=O)[C@@H]1C[C@@H](Cc3ccccc3O)ON12 [2f, (1S,2S,2′R,3a′S,5R)-2′-(2-Hydroxybenzyl)-2-isopropyl-5,5′-dimethyldihydro-2′H-spiro[cyclohexane-1,6′-imidazo [1,5-b]isoxazol]-4′(5′H)-one]	9.7 ± 0.7 µM	12.1 ± 1.1 µM	70.48%	13.11%	15.78%	0.63%	86.89%	19 ± 1.2%	63.3 ± 0.6%	17.9%	8.78%	67.16%	6.16%	91.22%	16.72%	7.39%	70.5%	5.39%	9.7 ± 1.3 µM	–	cell cycle arrest phase (MCF-7 [3]): S phase; IC50 (EGFR tyrosine kinase): 0.298 ± 0.007 µM; Total death (cellular apoptosis) (A549 [5]): 92.61%; cell cycle arrest phase (SKOV3 [6]): S phase; (%) of cells in G0/G1 (SKOV3 [6]): 31.4 ± 1.2%; (%) of cells in S (SKOV3 [6]): 59.5 ± 0.2%; decrease in the G2/M phase vs control, factor (SKOV3 [6]): 2.83; IC50 (MCF-7 [7]; MTT assay): 17.7 ± 1 µM; cell cycle arrest phase (A549 [8]): G2/M phase; (%) of cells in G0/G1 (A549 [8]; A549, 48 h at IC50): 23.1 ± 0.8%
COc1cc(C[C@@H]2C[C@H]3C(=O)N(C)[C@@]4(C[C@H](C)CC[C@H]4C(C)C)N3O2)ccc1OC(C)=O [2e, 4-(((1S,2S,2′R,3a′S,5R)-2-Isopropyl-5,5′-dimethyl-4′-oxotetrahydro-2′H-spiro[cyclohexane-1,6′-imidazo [1,5-b]isoxazol]-2′-yl)methyl)-2-methoxyphenyl acetate]	53.5 ± 1.1 µM	–	–	–	–	–	–	–	–	–	–	–	–	–	–	–	–	–	66.8 ± 2.7 µM	27.9 ± 1.9 µM	–
COc1cccc2c1C(=O)c1c(O)c3c(c(O)c1C2=O)C[C@@](O)(C(=O)CO)C[C@@H]3O[C@H]1C[C@H](N)[C@H](O)[C@H](C)O1 [Doxorubicin, doxorubicin, reference compound]	4.2 ± 0.24 µM	–	17.12%	7.94%	68.7%	6.24%	92.06%	18.4 ± 0.9%	34 ± 0.6%	20.56%	3.25%	73.08%	3.11%	96.75%	9.38%	1.16%	88.01%	1.45%	2.8 ± 0.4 µM	4.2 ± 0.013 µM	Total death (cellular apoptosis) (A549 [5]): 98.84%; (%) of cells in G0/G1 (SKOV3 [6]): 16.7 ± 1%; (%) of cells in S (SKOV3 [6]): 30.7 ± 0.6%; (%) of cells in G0/G1 (A549 [8]; A549, 48 h at IC50): 16.12 ± 0.54%; (%) of cells in S (A549 [8]; A549, 48 h at IC50): 34.01 ± 0.24%
Cc1cccc(C[C@@H]2C[C@H]3C(=O)N(C)C4(C[C@H](C)CC[C@H]4C(C)C)N3O2)c1O (stereo partly drawn) [2c, (2S,2′R,3a′S,5R)-2′-(2-hydroxy-3-methylbenzyl)-2-isopropyl-5,5′-dimethyldihydro-2′H-spiro[cyclohexane-1,6′-imidazo [1,5-b]isoxazol]-4′(5′H)-one]	35.4 ± 0.14 µM	–	–	–	–	–	–	–	–	–	–	–	–	–	–	–	–	–	7.2 ± 0.2 µM	19.4 ± 1.4 µM	–
